Source: article PMC6680510, “Benzotriazine Di-Oxide Prodrugs for Exploiting Hypoxia and Low Extracellular pH in Tumors” (Molecules, 2019)
“And” between values parts separate entries of the source, which are not always exact repeats. Identical values can stand only once. Like-named read-outs stand apart in the source and are kept apart here.

How the values were obtained:
[1] = system: SiHa cells; experiment: IC50 assay (inhibition of proliferation, 4 h exposure, SRB)
Method: Cells were seeded in 96-well plates (SiHa or FaDu 1500 cells/well, UT-SCC-74B 800 cells/well) in 100 μL. After incubation for 2 h, the drugs were added in 50 μL of the same titrated medium at 3× the final concentration to duplicate the wells. After a further 4 h the plates were checked for drug precipitation using a phase contrast microscope, then drugs were removed by aspirating and washing with the standard (pH 7.4) medium, then aspirating again and adding 150 μL of the medium. Cultures were then grown for 5 days before staining with sulphorhodamine B and measuring absorbance, with the estimation of IC50 values using 4-parameter logistic regression, as previously carried out.
The medium and plasticware was equilibrated in the chamber for 3 days prior to use. In the anoxia experiments, FaDu cells were plated in poly-L-lysine coated plates (Corning Cat # 356461) to improve attachment.
Cells were subsequently grown under standard cell culture conditions (oxia, pHe 7.4) for 5 days before staining with sulforhodamine B (SRB). […] (B) SN30000 (2). (C) BTO acid 4a. Values are means and errors are ranges for duplicate cultures in a single experiment. Fitted curves are 4-parameter logistic regressions. PCR = pH cytotoxicity ratio. ACR = anoxia cytotoxicity ratio. TMR = tumor microenvironment ratio.

[2] = system: FaDu cells; experiment: as above; type: cell-based
Method: Cells were seeded in 96-well plates (SiHa or FaDu 1500 cells/well, UT-SCC-74B 800 cells/well) in 100 μL. After incubation for 2 h, the drugs were added in 50 μL of the same titrated medium at 3× the final concentration to duplicate the wells. After a further 4 h the plates were checked for drug precipitation using a phase contrast microscope, then drugs were removed by aspirating and washing with the standard (pH 7.4) medium, then aspirating again and adding 150 μL of the medium. Cultures were then grown for 5 days before staining with sulphorhodamine B and measuring absorbance, with the estimation of IC50 values using 4-parameter logistic regression, as previously carried out [85].

[3] = Solubility in AlphaMEM + 5% FBS, pH 7.4; conditions: culture medium (AlphaMEM + 5% FBS), pH 7.4, plasma or biological fluid
[4] = One-electron reduction potentials by pulse radiolysis; type: physicochemical; conditions: pH 7.0, equilibrium with redox indicator shown in square brackets
Method: One-electron reduction potentials (E^0′) were determined from the redox equilibria with methylviologen, MV^2+, (E^0′ = […], [34]), dimethyldiquat, V21^2+, (E^0′ = […], [35]), or triquat, TQ^2+, (E^0′ = −548 ± 7 mV [34]). […] Substituting the 3-alkanoic sidechain with the 3-aminoalkanoic sidechain on the BTO 1,4-dioxide lowers the E^0′, as does the addition of the cyclopentane ring. The combined effect is seen for 10a, where the E^0′ value is −565 mV, which is expected to be too low for significant bioreduction under hypoxia.
Time-resolved optical absorption and kinetic studies were carried out using the University of Auckland’s 4 MeV linear accelerator, which has been previously described. The one-electron reduction potentials of the compounds (A) and couple E^0′(A/A^−), versus normal hydrogen electrode, were determined at pH 7.0 (2.5 mM phosphate) by establishing redox equilibria within 50 μs between three mixtures of one-electron reduced A and the viologen reference compounds, MV^2+, TQ^2+ and V21^2+. The determined equilibrium constants were used to calculate the ΔE values using the Nernst equation, correcting for ionic strength effects, as described in the literature.

[5] = Homo sapiens, SiHa, 4 h, read-out: Anoxic IC50, SiHa, pHe 6.5, 4 h, anoxic
[6] = Homo sapiens, SiHa, 4 h, read-out: Anoxic IC50, SiHa, pHe 7.4, 4 h, anoxic
[7] = Homo sapiens, SiHa, 4 h, read-out: Oxic IC50, SiHa, pHe 6.5, 4 h, oxic
[8] = Homo sapiens, SiHa, 4 h, read-out: Oxic IC50, SiHa, pHe 7.4, 4 h, oxic
[9] = Homo sapiens, 4 h, pHe 6.5, 4 h, anoxic, read-out: Anoxic IC50
[10] = Homo sapiens, 4 h, pHe 6.5, 4 h, oxic, read-out: Oxic IC50
[11] = Homo sapiens, 4 h, pHe 7.4, 4 h, anoxic, read-out: Anoxic IC50
[12] = Homo sapiens, 4 h, pHe 7.4, 4 h, oxic, read-out: Oxic IC50

SMILES	IC50 [1, 5] [µM]	IC50 [1, 6] [µM]	IC50 [1, 7] [µM]	IC50 [1, 8] [µM]	TMR (overall TME ratio = oxic IC50 pHe 7.4/anoxic IC50 pHe 6.5) ([1]; SiHa)	PCR Anoxic (IC50 at pHe 7.4/IC50 at pHe 6.5) ([1]; SiHa, anoxic)	PCR oxic (IC50 at pHe 7.4/IC50 at pHe 6.5) ([1]; SiHa, oxic)	ACR (anoxic cytotoxicity ratio = oxic IC50/anoxic IC50) ([1]; SiHa, pHe 6.5)	ACR (anoxic cytotoxicity ratio = oxic IC50/anoxic IC50) ([1]; SiHa, pHe 7.4)	TMR (oxic IC50 pHe 7.4/anoxic IC50 pHe 6.5) [2]	IC50 [2, 9] [µM]	IC50 [2, 10] [µM]	IC50 [2, 11] [µM]	IC50 [2, 12] [µM]	PCR Anoxic (IC50 at pHe 7.4/IC50 at pHe 6.5) ([2]; anoxic)	PCR oxic (IC50 at pHe 7.4/IC50 at pHe 6.5) ([2]; oxic)	ACR (oxic IC50/anoxic IC50) ([2]; pHe 6.5)	ACR (oxic IC50/anoxic IC50) ([2]; pHe 7.4)	melting point	solubility ([3]; kinetic from dmso stock) [µM]	further results
Cc1ccc2c(c1)[n+]([O-])nc(CCC(=O)O)[n+]2[O-] [Compound 5a, 3-(2-Carboxyethyl)-7-methylbenzo[e][1,2,4]triazine 1,4-Dioxide]	225 ± 38	542 ± 113	449 ± 188	> 3000	>13	2.41 ± 0.64	>6.7	1.99 ± 0.90	>5.5	13.9 ± 1.7	203 ± 18	1100 ± 110	924 ± 64	2770 ± 690	4.29 ± 0.55	2.55 ± 0.32	5.49 ± 0.26	3.00 ± 0.22	181 to 183 °C (dec.)	> 980	
Cc1ccc2c(c1)[n+]([O-])c(CCC(=O)O)n[n+]2[O-] [Compound 6a, 3-(2-Carboxyethyl)-6-methylbenzo[e][1,2,4]triazine 1,4-Dioxide]	364 ± 47	1180 ± 190	> 1000	> 1000	>2.7	3.24 ± 0.67		>2.7		>5	205 ± 25	> 1000	> 1000	> 1000	>5		>5		173 to 175 °C (dec.)	> 960	
COC(=O)CCc1n[n+]([O-])c2ccc(C)cc2[n+]1[O-] [Compound 6b, 3-(3-Methoxy-3-oxopropyl)-6-methylbenzo[e][1,2,4]triazine 1,4-Dioxide]																			166 to 168 °C	> 900	
COC(=O)CCc1n[n+]([O-])c2cc3c(cc2[n+]1[O-])CCC3 [Compound 7b, 3-(3-Methoxy-3-oxopropyl)-7,8-dihydro-6H-indeno[5,6-e][1,2,4]triazine 1,4-Dioxide]	15.1 ± 3.1	7.3 ± 1.6	195 ± 22	> 200	>13	0.48 ± 0.15	>1	13.0 ± 3.0	>27	>10	20 ± 5.4	157 ± 28	11.5 ± 2.2	> 200	0.58 ± 0.19	>1.2	7.84 ± 2.56	>17	170 to 171 °C		solubility ([3]; thermodynamic from solid): 280 µM
O=C(O)CNc1n[n+]([O-])c2ccccc2[n+]1[O-] [Compound 8a, 3-((Carboxymethyl)amino)benzo[e][1,2,4]triazine 1,4-dioxide]	135 ± 18	154 ± 26	> 2000	> 2000	>15	1.14 ± 0.25		>15	>13	>6.9	290 ± 48	1450 ± 268	289 ± 25	> 2000	1.0 ± 0.19	>1	4.99 ± 1.24	>6.9			E^0′ one-electron reduction potential [4]: −470 ± 9 [MV^2+] mV; solubility ([3]; thermodynamic from solid): 8700 µM
COC(=O)CNc1n[n+]([O-])c2cc3c(cc2[n+]1[O-])CCC3 [Compound 9b, 3-((2-Methoxy-2-oxoethyl)amino)-7,8-dihydro-6H-indeno[5,6-e][1,2,4]triazine 1,4-dioxide]	10.9 ± 1.42	8.08 ± 2.23	42.2 ± 5.7	> 53	>4.6	0.74 ± 0.23	>1.2	3.87 ±0.73	>6.5	>1.4	37.7 ± 8	> 53	46.9 ± 3	> 53	1.24 ± 0.28		>1	>1	171 to 178 °C		solubility ([3]; thermodynamic from solid): 70 µM
O=C(O)CCCNc1n[n+]([O-])c2ccccc2[n+]1[O-] [Compound 10a, 3-((3-Carboxypropyl)amino)benzo[e][1,2,4]triazine 1,4-Dioxide]					>4.8	>4.8				>4					1.58 ± 0.37		>4	>3			E^0′ one-electron reduction potential [4]: −565 mV and −565 ± 8 [TQ^2+] mV; ACR (anoxic cytotoxicity ratio = oxic IC50/anoxic IC50) [1]: >4.8; IC50 ([1]; read-out: Anoxic IC50, SiHa, pHe 6.5, 4 h, anoxic): 416 ± 57 µM; IC50 ([1]; read-out: Anoxic IC50, SiHa, pHe 7.4, 4 h, anoxic): > 2000 µM; IC50 ([1]; read-out: Oxic IC50, SiHa, pHe 6.5, 4 h, oxic): > 2000 µM; IC50 ([1]; read-out: Oxic IC50, SiHa, pHe 7.4, 4 h, oxic): > 2000 µM; IC50 ([2]; pHe 6.5, 4 h, anoxic, read-out: Anoxic IC50): 543 ± 126 µM; IC50 ([2]; pHe 6.5, 4 h, oxic, read-out: Oxic IC50): > 2000 µM; IC50 ([2]; pHe 7.4, 4 h, anoxic, read-out: Anoxic IC50): 856 ± 22 µM; IC50 ([2]; pHe 7.4, 4 h, oxic, read-out: Oxic IC50): > 2000 µM
CCOC(=O)CCCNc1n[n+]([O-])c2cc(C)ccc2[n+]1[O-] [Compound 12b, 3-((4-Ethoxy-4-oxobutyl)amino)-7-methylbenzo[e][1,2,4]triazine 1,4-Dioxide]																			191 to 192 °C	160	
